Converted amounts (≈) assume the structure as drawn.
What was measured:
Format in all cases: functional
[1] = test system: Klebsiella pneumoniae; test: Antibacterial activity against tetracycline-resistant Klebsiella pneumoniae 153
[2] = test system: Pseudomonas aeruginosa; test: Antibacterial activity against Pseudomonas aeruginosa ATCC 111 27853
[3] = test system: Escherichia coli; test: Antibacterial activity against Escherichia coli ATCC 107 25922
[4] = test system: Acinetobacter baumannii; test: Antibacterial activity against Acinetobacter baumannii ATCC 19606 110
[5] = test system: Klebsiella pneumoniae; test: Antibacterial activity against Klebsiella pneumoniae ATCC 109 13883
[6] = test system: Enterococcus faecalis; test: Antibacterial activity against tetracycline-resistant Enterococcus faecalis 159
[7] = test system: Streptococcus pneumoniae; test: microbe, parasite or virus in culture; conditions: ATCC 106 49619
Description: Antibacterial activity against Streptococcus pneumoniae ATCC 106 49619

[8] = test system: Enterococcus faecalis; test: Antibacterial activity against Enterococcus faecalis ATCC 103 29212
[9] = test system: Staphylococcus aureus; test: microbe, parasite or virus in culture; conditions: 158
[10] = test system: Streptococcus pneumoniae; test: Antibacterial activity against tetracycline-resistant Streptococcus pneumoniae 160
[11] = test system: Staphylococcus aureus; test: Antibacterial activity against Staphylococcus aureus ATCC 101 29213
[12] = test system: Enterobacter cloacae; test: Antibacterial activity against Enterobacter cloacae ATCC 108 13047
[13] = test system: Escherichia coli; test: Antibacterial activity against tetracycline-resistant Escherichia coli 155
[14] = test system: Staphylococcus aureus; test: Antibacterial activity against tetracycline- and methicillin-resistant Staphylococcus aureus 161

Row | SMILES | MIC [1] | MIC [2] | MIC [3] | MIC [4] | MIC [5] | MIC [6] | MIC [7] | MIC [8] | MIC [9] | MIC [10] | MIC [11] | MIC [12] | MIC [13] | MIC [14]
1 | COC[C@@H]1CCCN1CC(=O)Nc1cc(F)c2c(c1O)C(=O)C1=C(O)[C@]3(O)C(=O)C(C(N)=O)=C(O)[C@@H](N(C)C)[C@@H]3C[C@@H]1C2 | 16 µg/mL (≈ 26.6 µM) | > 32 µg/mL | 4 µg/mL (≈ 6.64 µM) | 0.5 µg/mL (≈ 0.83 µM) | 8 µg/mL (≈ 13.3 µM) | 2 µg/mL (≈ 3.32 µM) | 0.125 µg/mL (≈ 0.207 µM) | 1 µg/mL (≈ 1.66 µM) | 1 µg/mL (≈ 1.66 µM) | 0.125 µg/mL (≈ 0.207 µM) | 1 µg/mL (≈ 1.66 µM) | 16 µg/mL (≈ 26.6 µM) | 16 µg/mL (≈ 26.6 µM) | 2 µg/mL (≈ 3.32 µM)
2 | CCNCC(=O)Nc1cc(F)c2c(c1O)C(=O)C1=C(O)[C@]3(O)C(=O)C(C(N)=O)=C(O)[C@@H](N(C)C)[C@@H]3C[C@@H]1C2 | 8 µg/mL (≈ 15 µM) | 8 µg/mL (≈ 15 µM) | 0.25 µg/mL (≈ 0.469 µM) | 2 µg/mL (≈ 3.76 µM) | 1 µg/mL (≈ 1.88 µM) | 0.125 µg/mL (≈ 0.235 µM) | 0.0156 µg/mL (≈ 0.0293 µM) | 0.0625 µg/mL (≈ 0.117 µM) | 1 µg/mL (≈ 1.88 µM) | 0.0156 µg/mL (≈ 0.0293 µM) | 0.0625 µg/mL (≈ 0.117 µM) | 0.5 µg/mL (≈ 0.939 µM) | 16 µg/mL (≈ 30 µM) | 0.25 µg/mL (≈ 0.469 µM)
3 | CN(C)[C@@H]1C(O)=C(C(N)=O)C(=O)[C@@]2(O)C(O)=C3C(=O)c4c(O)c(NC(=O)CN5CCOCC5)cc(F)c4C[C@H]3C[C@@H]12 | > 32 µg/mL | > 32 µg/mL | > 32 µg/mL | 8 µg/mL (≈ 13.9 µM) | > 32 µg/mL | 8 µg/mL (≈ 13.9 µM) | 0.5 µg/mL (≈ 0.87 µM) | 8 µg/mL (≈ 13.9 µM) | 8 µg/mL (≈ 13.9 µM) | 1 µg/mL (≈ 1.74 µM) | 4 µg/mL (≈ 6.96 µM) | > 32 µg/mL | > 32 µg/mL | 8 µg/mL (≈ 13.9 µM)
4 | CN(C)[C@@H]1C(O)=C(C(N)=O)C(=O)[C@@]2(O)C(O)=C3C(=O)c4c(O)c(NC(=O)CN5CC[C@@H](O)C5)cc(F)c4C[C@H]3C[C@@H]12 | > 32 µg/mL | > 32 µg/mL | 4 µg/mL (≈ 6.96 µM) | 32 µg/mL (≈ 55.7 µM) | 16 µg/mL (≈ 27.8 µM) | 2 µg/mL (≈ 3.48 µM) | 0.25 µg/mL (≈ 0.435 µM) | 2 µg/mL (≈ 3.48 µM) | 16 µg/mL (≈ 27.8 µM) | 0.5 µg/mL (≈ 0.87 µM) | 2 µg/mL (≈ 3.48 µM) | 16 µg/mL (≈ 27.8 µM) | > 32 µg/mL | 2 µg/mL (≈ 3.48 µM)
5 | CN(C)[C@@H]1C(O)=C(C(N)=O)C(=O)[C@@]2(O)C(O)=C3C(=O)c4c(O)c(NC(=O)CNc5cccnc5)cc(F)c4C[C@H]3C[C@@H]12 | > 32 µg/mL | > 32 µg/mL | 16 µg/mL (≈ 27.5 µM) | > 8 µg/mL | 32 µg/mL (≈ 55 µM) | > 32 µg/mL | 0.25 µg/mL (≈ 0.43 µM) | 8 µg/mL (≈ 13.8 µM) | > 32 µg/mL | 2 µg/mL (≈ 3.44 µM) | 4 µg/mL (≈ 6.88 µM) | > 32 µg/mL | > 32 µg/mL | > 32 µg/mL
6 | CC(C)NCC(=O)Nc1cc(F)c2c(c1O)C(=O)C1=C(O)[C@]3(O)C(=O)C(C(N)=O)=C(O)[C@@H](N(C)C)[C@@H]3C[C@@H]1C2 | 4 µg/mL (≈ 7.32 µM) | 16 µg/mL (≈ 29.3 µM) | 0.5 µg/mL (≈ 0.915 µM) | 1 µg/mL (≈ 1.83 µM) | 1 µg/mL (≈ 1.83 µM) | 0.0625 µg/mL (≈ 0.114 µM) | 0.0156 µg/mL (≈ 0.0285 µM) | 0.0625 µg/mL (≈ 0.114 µM) | 0.5 µg/mL (≈ 0.915 µM) | 0.0156 µg/mL (≈ 0.0285 µM) | 0.125 µg/mL (≈ 0.229 µM) | 1 µg/mL (≈ 1.83 µM) | 8 µg/mL (≈ 14.6 µM) | 0.25 µg/mL (≈ 0.457 µM)
7 | CN(C)[C@@H]1C(O)=C(C(N)=O)C(=O)[C@@]2(O)C(O)=C3C(=O)c4c(O)c(NC(=O)CNC(C)(C)C)cc(F)c4C[C@H]3C[C@@H]12 | 2 µg/mL (≈ 3.57 µM) | 16 µg/mL (≈ 28.5 µM) | 0.25 µg/mL (≈ 0.446 µM) | 0.5 µg/mL (≈ 0.892 µM) | 1 µg/mL (≈ 1.78 µM) | 0.125 µg/mL (≈ 0.223 µM) | 0.0156 µg/mL (≈ 0.0278 µM) | 0.0625 µg/mL (≈ 0.111 µM) | 0.0625 µg/mL (≈ 0.111 µM) | 0.0156 µg/mL (≈ 0.0278 µM) | 0.125 µg/mL (≈ 0.223 µM) | 1 µg/mL (≈ 1.78 µM) | 2 µg/mL (≈ 3.57 µM) | 0.25 µg/mL (≈ 0.446 µM)
8 | CN(C)[C@@H]1C(O)=C(C(N)=O)C(=O)[C@@]2(O)C(O)=C3C(=O)c4c(O)c(NC(=O)CNc5ccccc5)cc(F)c4C[C@H]3C[C@@H]12 | > 32 µg/mL | > 32 µg/mL | > 32 µg/mL | > 8 µg/mL | > 32 µg/mL | 2 µg/mL (≈ 3.44 µM) | 2 µg/mL (≈ 3.44 µM) | 2 µg/mL (≈ 3.44 µM) | 2 µg/mL (≈ 3.44 µM) | > 4 µg/mL | 2 µg/mL (≈ 3.44 µM) | > 32 µg/mL | > 32 µg/mL | 4 µg/mL (≈ 6.89 µM)
9 | CN(C)[C@@H]1C(O)=C(C(N)=O)C(=O)[C@@]2(O)C(O)=C3C(=O)c4c(O)c(NC(=O)CN5CCCCC5)cc(F)c4C[C@H]3C[C@@H]12 | 4 µg/mL (≈ 6.99 µM) | 32 µg/mL (≈ 55.9 µM) | 1 µg/mL (≈ 1.75 µM) | 0.125 µg/mL (≈ 0.218 µM) | 2 µg/mL (≈ 3.49 µM) | 0.5 µg/mL (≈ 0.873 µM) | 0.0156 µg/mL (≈ 0.0272 µM) | 0.25 µg/mL (≈ 0.437 µM) | 0.5 µg/mL (≈ 0.873 µM) | 0.0156 µg/mL (≈ 0.0272 µM) | 0.5 µg/mL (≈ 0.873 µM) | 4 µg/mL (≈ 6.99 µM) | 4 µg/mL (≈ 6.99 µM) | 1 µg/mL (≈ 1.75 µM)
10 | COCCNCC(=O)Nc1cc(F)c2c(c1O)C(=O)C1=C(O)[C@]3(O)C(=O)C(C(N)=O)=C(O)[C@@H](N(C)C)[C@@H]3C[C@@H]1C2 | 8 µg/mL (≈ 14.2 µM) | 16 µg/mL (≈ 28.4 µM) | 1 µg/mL (≈ 1.78 µM) | 2 µg/mL (≈ 3.56 µM) | 2 µg/mL (≈ 3.56 µM) | 1 µg/mL (≈ 1.78 µM) | 0.0156 µg/mL (≈ 0.0277 µM) | 0.125 µg/mL (≈ 0.222 µM) | 4 µg/mL (≈ 7.11 µM) | 0.0625 µg/mL (≈ 0.111 µM) | 0.25 µg/mL (≈ 0.444 µM) | 4 µg/mL (≈ 7.11 µM) | 16 µg/mL (≈ 28.4 µM) | 0.5 µg/mL (≈ 0.889 µM)
11 | CN(C)[C@@H]1CCN(CC(=O)Nc2cc(F)c3c(c2O)C(=O)C2=C(O)[C@]4(O)C(=O)C(C(N)=O)=C(O)[C@@H](N(C)C)[C@@H]4C[C@@H]2C3)C1 | > 32 µg/mL | > 32 µg/mL | > 32 µg/mL | > 32 µg/mL | > 32 µg/mL | 16 µg/mL (≈ 26.6 µM) | 2 µg/mL (≈ 3.32 µM) | 16 µg/mL (≈ 26.6 µM) | > 32 µg/mL | 4 µg/mL (≈ 6.65 µM) | 8 µg/mL (≈ 13.3 µM) | > 32 µg/mL | > 32 µg/mL | > 32 µg/mL
12 | CN(C)[C@@H]1C(O)=C(C(N)=O)C(=O)[C@@]2(O)C(O)=C3C(=O)c4c(O)c(NC(=O)CN5CC[C@@H](F)C5)cc(F)c4C[C@H]3C[C@@H]12 | 8 µg/mL (≈ 13.9 µM) | > 32 µg/mL | 1 µg/mL (≈ 1.73 µM) | 0.25 µg/mL (≈ 0.434 µM) | 4 µg/mL (≈ 6.94 µM) | 0.25 µg/mL (≈ 0.434 µM) | 0.0156 µg/mL (≈ 0.0271 µM) | 0.125 µg/mL (≈ 0.217 µM) | 0.5 µg/mL (≈ 0.867 µM) | 0.0156 µg/mL (≈ 0.0271 µM) | 0.25 µg/mL (≈ 0.434 µM) | 8 µg/mL (≈ 13.9 µM) | 16 µg/mL (≈ 27.8 µM) | 0.5 µg/mL (≈ 0.867 µM)
13 | CN(C)[C@@H]1C(O)=C(C(N)=O)C(=O)[C@@]2(O)C(O)=C3C(=O)c4c(O)c(NC(=O)CN5Cc6ccccc6C5)cc(F)c4C[C@H]3C[C@@H]12 | 32 µg/mL (≈ 52.8 µM) | > 32 µg/mL | 2 µg/mL (≈ 3.3 µM) | 0.125 µg/mL (≈ 0.206 µM) | 4 µg/mL (≈ 6.59 µM) | 0.5 µg/mL (≈ 0.824 µM) | 0.125 µg/mL (≈ 0.206 µM) | 0.25 µg/mL (≈ 0.412 µM) | 0.25 µg/mL (≈ 0.412 µM) | 0.125 µg/mL (≈ 0.206 µM) | 0.25 µg/mL (≈ 0.412 µM) | 32 µg/mL (≈ 52.8 µM) | 4 µg/mL (≈ 6.59 µM) | 0.5 µg/mL (≈ 0.824 µM)
14 | CN(C)[C@@H]1C(O)=C(C(N)=O)C(=O)[C@@]2(O)C(O)=C3C(=O)c4c(O)c(NC(=O)CN5CC6CCCC6C5)cc(F)c4C[C@H]3C[C@@H]12 (stereo partly specified) | 4 µg/mL (≈ 6.68 µM) | > 32 µg/mL | 1 µg/mL (≈ 1.67 µM) | 0.06 µg/mL (≈ 0.1 µM) | 2 µg/mL (≈ 3.34 µM) | 0.5 µg/mL (≈ 0.835 µM) | 0.125 µg/mL (≈ 0.209 µM) | 0.25 µg/mL (≈ 0.418 µM) | 0.5 µg/mL (≈ 0.835 µM) | 0.06 µg/mL (≈ 0.1 µM) | 0.5 µg/mL (≈ 0.835 µM) | 4 µg/mL (≈ 6.68 µM) | 2 µg/mL (≈ 3.34 µM) | 1 µg/mL (≈ 1.67 µM)

Reference: ChEMBL document CHEMBL1949621, “Fluorocyclines. 1. 7-fluoro-9-pyrrolidinoacetamido-6-demethyl-6-deoxytetracycline: a potent, broad spectrum antibacterial agent” (J Med Chem, 2012)
